Three molecules from US20250346643A1, “TROPOMYOSIN KINASE RECEPTOR (TRK) LIGANDS AS THERAPEUTICS TO SUPPORT LIVER REGENERATION” (Vanderbilt University, priority 2024, published 2025) can be followed below.

For experiment [1], the system named is mouse passaged primary human hepatocytes. The experiment in a line: EdU incorporation in mouse passaged primary human hepatocytes (mpPHH). The format is cell-based. The conditions noted are these: 20 ng/ml each, 4 hours (FIG. 19E-F). How it is done:
Mouse passaged primary human hepatocytes. Mouse-passaged primary human hepatocytes (mpPHHs) were collected as previously described (Michailidis et al., Proc Natl Acad Sci USA. 2020; 117(3): 1678-1688) and cultured in hepatocyte culture media (CC-3198, Lonza, Basel, Switzerland) in collagen-coated chamber slides. Three days before treatment, mpPHH were incubated in William's E media (with L-glutamine). Vehicle, NTF3, BDNF, or HGF (20 ng/ml each) were diluted in William's E (without L-glutamine) and EdU (EdU Cell Proliferation kit, Alexa Flour 555, Thermo Fisher Scientific, Waltham, MA; C10638) was added to each well. mpPHH were incubated for 4 hours and the experiment terminated by fixing the mpPHH in 4% paraformaldehyde/PFA and permeablized with Triton X-100. Click-iT™ EdU staining was then performed according to the manufacturer's instructions. mpPHH were mounted with Flouromount G and imaged with Nikon confocal microscope. 5-15 images per treatment per experiment were randomly taken and EdU positive nuclei quantified.
EdU incorporation and imaging in HDO and mpPHH. A chamber slide was pre-chilled on ice and coated with Matrigel®. Chamber slide was then incubated for 3 min at 37° C. to solidify and organoids plated in 0.02% Matrigel®/complete media into coated chamber slides. Organoids were grown in complete organoid growth media (OGM) for approximately 4 days followed by incubation in organoid differentiation media (ODM) for another 4 days. Organoids were changed to William's E medium 1 day prior to experiment. Vehicle or NTF3, BDNF, HGF (20 ng/ml final concentration each) or Taletrectinib (Fisher Scientific, Waltham, MA; 502030245, final concentration 10 nM) were diluted in William's E (without L-glutamine) and added to organoids. CLICK-iT™ EdU (EdU final concentration […] incubated together with the vehicle, NTF3, BDNF or HGF). […] Five to fifteen images of random high-power fields were obtained per experiment per treatment and EdU+/Hoechst 33342+ nuclei versus all Hoechst 33342+ nuclei quantified.

The test system of experiment [2] is hepatocytic differentiated human ductal organoids. The experiment in a line: EdU incorporation in hepatocytic differentiated human ductal organoids (HDO). The format is cell-based. The conditions noted are these: for EdU+ cells compared to vehicle only: 20 ng/ml, 6 hours, William's E without L-glutamine (FIG. 19A-B). How it is done: Human ductal organoids. The normal human liver tissue was obtained through the Cooperative Human Tissue Network (CHTN) at Vanderbilt University Medical Center. The liver was cut into very small pieces in liver digestion medium (Gibco, Waltham, MA; 17703-034). The cell suspension was filtered through a 100-μm cell strainer. The flow through was then centrifuged for 2 min at 100 g, 4° C., and the cell pellet resuspended in ice-cold DMEM (Gibco, Waltham, MA; 11885-084, supplemented by 5% FBS) and centrifuged for 2 min at 300 g. The cell pellet was gently resuspended in Matrigel® (Corning, Corning, NY; 356231) and a […] dome plated in a 24-well plate. The plate was incubated for 10-15 min at 37° C. After solidifying, complete HepatiCult™ Organoid Initiation Medium (OIM) (STEMCELL Technologies, Vancouver, Canada; 100-0384) was added. For passaging, the Matrigel dome was dissociated using TrypLE (Thermo Fisher Scientific, Waltham, MA; 12604013) and incubated at 37° C. for 5 mins. Organoids were washed by resuspending in advanced DMEM/F12 and consecutive resuspension of the organoid pellet. Organoids were resuspended at a 1:10 dilution in Matrigel® and cultured in complete HepatiCult™ Organoid Growth Medium (OGM) (STEMCELL Technologies, Vancouver, Canada; 100-0385) for organoid expansion. For hepatocytic differentiation of hepatic ductal organoids, culture medium was changed to complete HepatiCult™ Organoid Differentiation Medium (ODM) (STEMCELL Technologies, 100-0383) 4 days after passaging. Vehicle, NTF3, BDNF, HGF (20 ng/ml final concentration) or Taletrectinib (Fisher Scientific, Waltham, MA; 502030245, final concentration 10 nM) or torin2 (Fisher Scientific, Waltham, MA; s2817, final concentration 25 nM) were diluted in William's E (without L-glutamine) and added to organoids.
EdU incorporation and imaging in HDO and mpPHH. A chamber slide was pre-chilled on ice and coated with Matrigel®. Chamber slide was then incubated for 3 min at 37° C. to solidify and organoids plated in 0.02% Matrigel®/complete media into coated chamber slides. Organoids were grown in complete organoid growth media (OGM) for approximately 4 days followed by incubation in organoid differentiation media (ODM) for another 4 days. Organoids were changed to William's E medium 1 day prior to experiment. Vehicle or NTF3, BDNF, HGF (20 ng/ml final concentration each) or Taletrectinib (Fisher Scientific, Waltham, MA; 502030245, final concentration 10 nM) were diluted in William's E (without L-glutamine) and added to organoids. CLICK-iT™ EdU (EdU final concentration […] incubated together with the vehicle, NTF3, BDNF or HGF). After 6 hours, organoids were fixed with 4% paraformaldehyde and permeabilized with 0.5% Triton-X 100. Further processing was performed according to CLICK-ITT EdU manufacturer's instructions. mpPHHs were seeded on collagen coated chamber slides and grown in complete hepatocyte medium (Lonza, Basel, Switzerland). Prior to EdU incorporation assays, mpPHHs were cultured in William's E medium. Vehicle or NTF3, BDNF, HGF (20 ng/ml final concentration each) or Taletrectinib (Fisher Scientific, Waltham, MA; 502030245, final concentration 10 nM) were diluted in William's E (without L-glutamine) and added to mpPHHs. Organoids were imaged in PBS in chamber slides, mpHHs were mounted with fluoromount. Five to fifteen images of random high-power fields were obtained per experiment per treatment and EdU+/Hoechst 33342+ nuclei versus all Hoechst 33342+ nuclei quantified.

Experiment [3] concerns CCND1. Description: Western blot of CCND1 in AML12 cell lysates. The format is cell-based, mouse. The conditions noted are these: AML12 (FIG. 9I-J). How it is done: Human HepG2 and mouse AML12 cells were grown in 6-well plates. Cells were treated with NTF3 (20 ng/ml) purchased from STEMCELL technologies, Vancouver, Canada (cat. 78074), R&D Systems, Minneapolis, MN (267-N3), Gibco, Waltham, MA (PHC7036) and/or Loxo-195 (5-10 nM) (Selleckchem, Houston, TX; S8636) in complete growth media without L-glutamine for 2 hours. Lyophilized NTF3 was solubilized with sterile filtered PBS supplemented with 0.1% BSA, aliquoted and stored at −80° C. until use. […] HepG2 and AML12 cells were collected on ice in PBS, centrifuged for 10 sec […] cell pellet homogenized in RIPA buffer containing inhibitors (Roche, Basel, Switzerland; complete Mini proteinase inhibitor, 1×HALT phosphatase inhibitors, Thermo Scientific, Waltham, MA; cat. 78428). Cell lysates were sonicated and centrifuged for 10 min at 18,800×g. Protein concentration of supernatants were determined by Direct Detect Spectrophotometer (MilliporeSigma, Burlington, MA).
For immunoblot analysis, 30-50 μg of protein diluted in LSD sample buffer (Invitrogen, Waltham, MA) were analyzed per SDS-PAGE (NuPAGE™, Invitrogen, Waltham, MA) using MOPS buffer or MES buffer (Invitrogen, Waltham, MA). […] Semi-quantitative band densitometry was performed using ImageJ software (version 1.53).
Background: Immunoblotting shows a protein as a band on a membrane.

Turning to “NTF3: neurotrophin-3, recombinant protein; HSC-derived hepatocyte mitogen, ligand of TRKA, TRKB, TRKC”, in experiment [1], the “EdU+ nuclei compared to vehicle only” value is listed as “increased EdU+ nuclei”. In addition, the “EdU+ cells compared to vehicle only” value in experiment [2] is given as “significantly increased EdU+ cells”. In addition, in experiment [2] (NTF3 20 ng/ml (FIG. 19C-D)), the “EdU+ cells compared to vehicle alone, taletrectinib experiment” value is reported as “significant increase of EdU+ cells”. In addition, the “CCND1 amounts, NTF3 from three different vendors” value in experiment [3] is reported as “CCND1 amounts increased”.

B1: BDNF: brain-derived neurotrophic factor, neurotrophin specific for TrkB (protein)
chain: HSDPARRGELSVCDSISEWVTAADKKTAVDMSGGTVTVLEKVPVSKGQLKQYFYETKCNPMGYTKEGCRGIDKRHWNSQCRTTQSYVRALTMDSKKRIGWRFIRIDTSCVCTLTIKRGR
Turning to B1, the “EdU+ nuclei compared to vehicle only” value in experiment [1] is reported as “increased EdU+ nuclei”. For the same molecule, the “EdU+ cells compared to vehicle only” value in experiment [2] is listed as “significantly increased EdU+ cells”.

B2: HGF: hepatocyte growth factor, complete hepatocyte mitogen used as comparator (protein, UniProt Q08048 33-495; Q08048 496-728, looked up)
Hepatocyte growth factor …: QKKRRNTLHEFKKSAKTTLTKEDPLLKIKTKKVNSADECANRCIRNRGFTFTCKAFVFDKSRKRCYWYPFNSMSSGVKKGFGHEFDLYENKDYIRNCIIGKGGSYKGTVSITKSGIKCQPWNSMIPHEHSFLPSSYRGKDLQENYCRNPRGEEGGPWCFTSNPEVRYEVCDIPQCSEVECMTCNGESYRGPMDHTESGKTCQRWDQQTPHRHKFLPERYPDKGFDDNYCRNPDGKPRPWCYTLDPDTPWEYCAIKTCAHSAVNETDVPMETTECIQGQGEGYRGTSNTIWNGIPCQRWDSQYPHKHDITPENFKCKDLRENYCRNPDGAESPWCFTTDPNIRVGYCSQIPKCDVSSGQDCYRGNGKNYMGNLSKTRSGLTCSMWDKNMEDLHRHIFWEPDASKLNKNYCRNPDDDAHGPWCYTGNPLIPWDYCPISRCEGDTTPTIVNLDHPVISCAKTKQLR
Hepatocyte growth factor beta …: VVNGIPTQTTVGWMVSLKYRNKHICGGSLIKESWVLTARQCFPARNKDLKDYEAWLGIHDVHERGEEKRKQILNISQLVYGPEGSDLVLLKLARPAILDNFVSTIDLPSYGCTIPEKTTCSIYGWGYTGLINADGLLRVAHLYIMGNEKCSQHHQGKVTLNESELCAGAEKIGSGPCEGDYGGPLICEQHKMRMVLGVIVPGRGCAIPNRPGIFVRVAYYAKWIHKVILTYKL
Turning to B2, the “EdU+ nuclei compared to vehicle only” value in experiment [1] is “increased EdU+ nuclei”. Besides, in experiment [2], the “EdU+ cells compared to vehicle only” value is given as “significantly increased EdU+ cells”.
